Experimental data published in ChEMBL document CHEMBL2406972, “Synthesis and antitumor activities of novel dibenzo[b,d]furan-imidazole hybrid compounds” (Eur J Med Chem, 2013).

Key:
[1] = system: SMMC-7721; assay: Cytotoxicity against human SMMC7721 cells after 48 hrs by MTT assay; type: functional, cell-based; conditions: SMMC-7721, 48 h
[2] = system: SMMC-7721; assay: Induction of apoptosis in human SMMC7721 cells assessed as early apoptotic cells at 9 uM after 48 hrs using by V-FITC/PI double-staining assay (reference value: 1.76%); type: functional
[3] = system: SMMC-7721; assay: Induction of apoptosis in human SMMC7721 cells assessed as early apoptotic cells at 3 uM after 48 hrs using by V-FITC/PI double-staining assay (reference value: 1.76%); type: functional
[4] = system: SMMC-7721; assay: Cell cycle arrest in human SMMC7721 cells assessed as accumulation at S phase at 3 uM after 24 hrs using PI staining by flow cytometry (reference value: 24.41%); type: functional
[5] = system: SMMC-7721; assay: Induction of apoptosis in human SMMC7721 cells assessed as late apoptotic cells at 6 uM after 48 hrs using by V-FITC/PI double-staining assay (reference value: 0.481%); type: functional
[6] = system: SMMC-7721; assay: Cell cycle arrest in human SMMC7721 cells assessed as accumulation at G2/M phase at 3 uM after 24 hrs using PI staining by flow cytometry (reference value: 12.84%); type: functional
[7] = system: SMMC-7721; assay: Cell cycle arrest in human SMMC7721 cells assessed as accumulation at G1 phase at 6 uM after 24 hrs using PI staining by flow cytometry (reference value: 60.29%); type: functional
[8] = system: SMMC-7721; assay: Induction of apoptosis in human SMMC7721 cells at 3 uM after 48 hrs using by V-FITC/PI double-staining assay (reference value: 2.73 +/- 0.69%); type: functional
[9] = system: SW480; assay: Cytotoxicity against human SW480 cells after 48 hrs by MTT assay; type: functional, cell-based; conditions: SW480, 48 h
[10] = system: HL-60; assay: Cytotoxicity against human HL60 cells after 48 hrs by MTT assay; type: functional, cell-based; conditions: HL-60, 48 h
[11] = system: SMMC-7721; assay: Cell cycle arrest in human SMMC7721 cells assessed as accumulation at S phase at 6 uM after 24 hrs using PI staining by flow cytometry (reference value: 24.41%); type: functional
[12] = system: SMMC-7721; assay: Cell cycle arrest in human SMMC7721 cells assessed as accumulation at G2/M phase at 6 uM after 24 hrs using PI staining by flow cytometry (reference value: 12.84%); type: functional
[13] = system: SMMC-7721; assay: Induction of apoptosis in human SMMC7721 cells assessed as necrotic cells at 6 uM after 48 hrs using by V-FITC/PI double-staining assay (reference value: 4.90%); type: functional
[14] = system: SMMC-7721; assay: Induction of apoptosis in human SMMC7721 cells assessed as viable cells at 9 uM after 48 hrs using by V-FITC/PI double-staining assay (reference value: 92.9%); type: functional; conditions: SMMC-7721, 48 h, read-out: Activity
[15] = system: SMMC-7721; assay: Induction of apoptosis in human SMMC7721 cells at 9 uM after 48 hrs using by V-FITC/PI double-staining assay (reference value: 2.73 +/- 0.69%); type: functional
[16] = system: SMMC-7721; assay: Cell cycle arrest in human SMMC7721 cells assessed as accumulation at G1 phase at 3 uM after 24 hrs using PI staining by flow cytometry (reference value: 60.29%); type: functional
[17] = system: SMMC-7721; assay: Induction of apoptosis in human SMMC7721 cells assessed as viable cells at 6 uM after 48 hrs using by V-FITC/PI double-staining assay (reference value: 92.9%); type: functional; conditions: SMMC-7721, 48 h, read-out: Activity
[18] = system: SMMC-7721; assay: Induction of apoptosis in human SMMC7721 cells assessed as late apoptotic cells at 3 uM after 48 hrs using by V-FITC/PI double-staining assay (reference value: 0.481%); type: functional
[19] = system: MCF7; assay: Cytotoxicity against human MCF7 cells after 48 hrs by MTT assay; type: functional, cell-based; conditions: MCF7, 48 h
[20] = system: SMMC-7721; assay: Induction of apoptosis in human SMMC7721 cells assessed as necrotic cells at 9 uM after 48 hrs using by V-FITC/PI double-staining assay (reference value: 4.90%); type: functional
[21] = system: A549; assay: Cytotoxicity against human A549 cells after 48 hrs by MTT assay; type: functional, cell-based; conditions: A549, 48 h
[22] = system: SMMC-7721; assay: Induction of apoptosis in human SMMC7721 cells assessed as necrotic cells at 3 uM after 48 hrs using by V-FITC/PI double-staining assay (reference value: 4.90%); type: functional
[23] = system: SMMC-7721; assay: Induction of apoptosis in human SMMC7721 cells assessed as early apoptotic cells at 6 uM after 48 hrs using by V-FITC/PI double-staining assay (reference value: 1.76%); type: functional
[24] = system: SMMC-7721; assay: Induction of apoptosis in human SMMC7721 cells assessed as late apoptotic cells at 9 uM after 48 hrs using by V-FITC/PI double-staining assay (reference value: 0.481%); type: functional
[25] = system: SMMC-7721; assay: Induction of apoptosis in human SMMC7721 cells at 6 uM after 48 hrs using by V-FITC/PI double-staining assay (reference value: 2.73 +/- 0.69%); type: functional
[26] = system: SMMC-7721; assay: Cell cycle arrest in human SMMC7721 cells assessed as accumulation at G1 phase after 24 hrs using PI staining by flow cytometry; type: functional, cell-based
[27] = system: SMMC-7721; assay: Induction of apoptosis in human SMMC7721 cells assessed as viable cells at 3 uM after 48 hrs using by V-FITC/PI double-staining assay (reference value: 92.9%); type: functional; conditions: SMMC-7721, 48 h, read-out: Activity

Structure (SMILES): O=C(C[n+]1cn(C(c2ccccc2)c2ccc3oc4ccccc4c3c2)c2ccccc21)c1ccc2ccccc2c1.[Br-] (configuration not stated)
- IC50 [1]: 2.86 µM
- Activity [2]: 11.9%
- Activity [3]: 3.46%
- Activity [4]: 26.8%
- Activity [5]: 13.8%
- Activity [6]: 4.96%
- Activity [7]: 80.14%
- Activity [8]: 7.6%
- IC50 [9]: 3.59 µM
- IC50 [10]: 0.93 µM
- Activity [11]: 17.8%
- Activity [12]: 0.75%
- Activity [13]: 4.21%
- viability at 9 µM [14]: 39.2%
- Activity [15]: 50.8%
- Activity [16]: 67.74%
- viability at 6 µM [17]: 53.4%
- Activity [18]: 5.37%
- IC50 [19]: 1.04 µM
- Activity [20]: 8.76%
- IC50 [21]: 3.54 µM
- Activity [22]: 1.06%
- Activity [23]: 28.6%
- Activity [24]: 40.1%
- Activity [25]: 43.6%
- Activity [26]: Dose-dependent effect
- viability at 3 µM [27]: 90.1%

Structure (SMILES): O=C(C[n+]1cn(C(c2ccccc2)c2ccc3oc4ccccc4c3c2)c2ccccc21)c1ccc(F)cc1 (configuration not stated)
- IC50 [1]: 3.57 µM
- IC50 [9]: 3.6 µM
- IC50 [10]: 2.18 µM
- IC50 [19]: 1.87 µM
- IC50 [21]: 12.1 µM

Structure (SMILES): O=C(C[n+]1ccn(C(c2ccccc2)c2ccc3oc4ccccc4c3c2)c1)c1ccc2ccccc2c1 (configuration not stated)
- IC50 [1]: 3.61 µM
- IC50 [9]: 2.57 µM
- IC50 [10]: 1.91 µM
- IC50 [19]: 2.78 µM
- IC50 [21]: 5.86 µM

Structure (SMILES): Cc1n(C(C)c2ccc3oc4ccccc4c3c2)cc[n+]1CC(=O)c1ccccc1 (configuration not stated)
- IC50 [1]: 3.02 µM
- IC50 [9]: 10.1 µM
- IC50 [10]: 2.85 µM
- IC50 [19]: 4.49 µM
- IC50 [21]: 17.9 µM

Structure (SMILES): CCCC[n+]1ccn(C(c2ccccc2)c2ccc3oc4ccccc4c3c2)c1 (configuration not stated)
- IC50 [1]: 8.13 µM
- IC50 [9]: 13.1 µM
- IC50 [10]: 1.1 µM
- IC50 [19]: 6.03 µM
- IC50 [21]: 11.4 µM

Structure (SMILES): CC(c1ccc2oc3ccccc3c2c1)n1cc[n+](CC(=O)c2ccccc2)c1 (configuration not stated)
- IC50 [1]: 12.1 µM
- IC50 [9]: 14.4 µM
- IC50 [10]: 2.55 µM
- IC50 [19]: 14.1 µM
- IC50 [21]: 27 µM

Structure (SMILES): CC(c1ccc2oc3ccccc3c2c1)n1cc[n+](CC(=O)c2ccc(F)cc2)c1 (configuration not stated)
- IC50 [1]: 17.5 µM
- IC50 [9]: 16.4 µM
- IC50 [10]: 2.64 µM
- IC50 [19]: 16.7 µM
- IC50 [21]: 22.6 µM
